Measured values taken from patent publication US20090325920A1, “METHODS FOR THE TREATMENT OF A TRAUMATIC CENTRAL NERVOUS SYSTEM INJURY” (priority 2005, published 2009).

Experiments:
[1] = tested on: patients having moderate to severe TBI; test: Pilot phase II randomized double-blind trial of progesterone for traumatic brain injury, preliminary evaluation (Example 2); type: in vivo, human
Procedure: The administration protocol was carried out was described above in Example 1.
To determine if a therapeutic response was achieved, the following endpoints were monitored:
ICP reduction determined by calculating “therapeutic intensity level” (ICP-TIL);
duration of coma (injury to awaking);
mortality one-month post injury;
neurological outcome 1 month and 1 year post-injury, as determined by Glasgow outcome scale (GOS), Disability rating scale (DRS) and Galveston orientation and amnesia test (GOAT).
The administration protocol and pharmaceutical composition administered are described in detail in Example 1. Follow up regarding condition occurred at 30 days and 1 year.

clinical = settings: human, in vivo
Source text: This study was approved by the Institutional Review Board of Emory University, the Drug Safety Monitoring Board (NINDS) and the FDA (IND #58,986). After obtaining informed consent, thirty-six patients meeting the inclusion criteria outlined as follows were studied. […] Inclusion criteria required that each patient be ≧18 years old, have a closed head injury arising from blunt trauma, have a moderate to severe brain injury (Index Glasgow Coma Score (GCS) 4-12) and arrive in the Emergency Department and obtain informed consent (from next-of-kin) in less than 11 hours post injury.
Aliquots of each solution were assayed for final concentration and sterility. […] Each kit contained six vials. […] The placebo kits were also formulated with 95% ethanol. Because of the alcohol concentration, doses of study drug were mixed with Intralipid® immediately prior to infusion. Each infusion dose was administered over 12 hours and repeated every 12 hours for a total of 72 hours. […] The dosing worksheet was also used to calculate the volume of study medication to be diluted in Intralipid® for each of the remaining infusion reservoirs at a standard rate of 10 cc/hr.
Nine (5 ml) samples were obtained at the following times during the infusion: pre-infusion (0), 4, 6, 12, 24, 36, 48, 60, and 72 hours. An additional five samples were obtained following cessation of infusion at: 0.5, 1, 2, 4 and 8 hours. Samples were allowed to clot, and then centrifuged After that, the serum was removed and stored at −70° C. until analyzed.
The primary pharmacokinetic parameter, CL, was estimated as the ratio of the dose to area under the serum concentration-time curve (AUC). AUC's were calculated using the linear trapezoidal rule (Veng-Pedersen (1989) Clin Pharmacokinet, 17(6):424-40). The elimination phase rate constant, ke, was calculated from the serum concentration-time data following the termination of the infusion using iterative non-linear regression (WinNonlin®, Pharsight Corporation, Mountain View, Calif.). Volume of Distribution was estimated as the ratio of CL and ke. Css was estimated as the ratio of Dose and CL. Actual Css was defined as the concentration achieved when the slope of the serum concentration-time curve for three or more consecutive samples was not different from zero.
Predicted Css concentrations were calculated as the ratio of the infusion rate/clearance. Differences between predicted and measured Css were made using a ‘t’ test for repeated measures. A Bland-Altman analysis was conducted to assess the magnitude of any bias associated with this approach (Bland and Altman (1986) Lancet, 1(8476):307-10). Pharmacokinetic parameter comparisons between male and female were accomplished using a ‘t’ test for independent means. A p value of less than 0.05 was considered the minimum level for rejection of the null hypothesis.

[2] = number of subjects, treatment A (76 of 99)

SMILES: CC(=O)[C@H]1CC[C@H]2[C@@H]3CCC4=CC(=O)CC[C@]4(C)[C@H]3CC[C@]12C [progesterone, pregn-4-ene-3,20-dione]
- mortality rate ([1]; moderate to severe TBI, three days IV progesterone, preliminary): 12.9%
- Brain death, frequency [1, 2]: 4
- Medicinal death, frequency [1, 2]: 5
- Not Dead, frequency [1, 2]: 67
- proportion of subjects experiencing brain death versus group B ([1]; p=0.0295 by Fisher's exact test): significantly lower proportion
- proportion of subjects experiencing medical death versus group B ([1]; p=0.6622 by Fisher's exact): not statistically significant
- Medicinal death, percent ([1]; percent of all 99 subjects): 5.05%
- Not Dead, percent ([1]; percent of all 99 subjects): 67.68%
- reduction in brain deaths ([1]; versus control subjects, preliminary): 60%
- Css actually measured (clinical; both): 337 ± 135 ng/mL
- Css predicted by Ro/CL (clinical; both): 332 ± 121 ng/mL
- clearance (clinical; both, CL): 28.8 mL/min/kg
- half-life (clinical; both, terminal half-life): 1.78 ± 1 h
- Css Measured (clinical; female): 316 ng/mL
- clearance (clinical; female, CL): 31.3 mL/min/kg
- Vd (clinical; female, iv): 1.33 L/kg
- half-life (clinical; female, t1/2): 2.03 ± 1.08 h
- clearance (clinical; male, CL): 27.7 mL/min/kg
- Vd (clinical; male, iv): 1.62 L/kg
- clearance (clinical; male, iv): 22.2 mL/min/kg
- half-life (clinical; male, t1/2): 1.6 ± 0.95 h
